Laboratory results: PMC4937660, “In vitro evaluation of the effects of 4-aminopyridine on cytochrome P450 enzymes” (Journal of Drug Assessment, 2013)

Test system: T1, CYP3A4/5
T1 construct: native enzymes in pooled human liver microsomes (16 samples, XenoTech); read out by testosterone 6beta-hydroxylation and midazolam 1'-hydroxylation
Experiment: testosterone 6beta-hydroxylation in human liver microsomes, HPLC-MS/MS
Format: biochemical
Details: direct inhibition, no pre-incubation; testosterone 100 μM (about Km); NADPH-generating system, pH 7.4, 37 °C; read-out: Direct inhibition; 0-min Pre-incubation / IC50
Source text: testosterone 6beta-hydroxylation in human liver microsomes, HPLC-MS/MS on CYP3A4/5

Nc1ccncc1 [4-AP]
IC50: > 30 µM
